Where two headings read alike, the source gives them in different places.
Experiments:
human UT-B = molecular target: T1, human UT-B (Homo sapiens, UniProt Q13336); assay: erythrocyte lysis model, human erythrocytes; assay type: cell-based
T1 construct: endogenous in cells; host or cells: human erythrocytes
T1 sequence (Q13336 1-389): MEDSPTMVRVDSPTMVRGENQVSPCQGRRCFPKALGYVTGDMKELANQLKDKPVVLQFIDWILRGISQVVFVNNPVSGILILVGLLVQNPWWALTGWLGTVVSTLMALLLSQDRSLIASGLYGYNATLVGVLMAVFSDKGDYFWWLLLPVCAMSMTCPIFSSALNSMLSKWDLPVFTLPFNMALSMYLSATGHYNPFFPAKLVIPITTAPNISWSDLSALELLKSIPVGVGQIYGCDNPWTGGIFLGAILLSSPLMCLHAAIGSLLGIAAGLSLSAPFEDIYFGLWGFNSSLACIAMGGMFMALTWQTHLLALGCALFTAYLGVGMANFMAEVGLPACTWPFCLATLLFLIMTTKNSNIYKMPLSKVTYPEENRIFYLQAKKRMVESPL
Experimental: (§1) Erythrocyte lysis rate was calculated:
(§2) The formula for calculating the lysis rate percentage of erythrocytes, wherein Atest was the absorbance value of the test well, Aneg was the absorbance value of the negative control well, and Apos was the absorbance value of the positive control well. Erythrocyte lysis rate was calculated by measuring absorption at a wavelength of 710 nm.
(§3) The erythrocytes of three species of human, rats (SD rats) and mice (C57 mice) were taken, and urea transporter inhibitors were preliminarily screened from the above screening compound library by using the erythrocyte urea transporter inhibitor screening model.

UT-B [1] = molecular target: T2, UT-B (Mus musculus, UniProt Q8VHL0); assay: erythrocyte lysis model, mouse erythrocytes; assay type: cell-based; details: concentration when the erythrocyte lysis rate of mice was 50%
T2 construct: endogenous in cells; host or cells: erythrocytes of C57 mice
T2 sequence (Q8VHL0 1-384): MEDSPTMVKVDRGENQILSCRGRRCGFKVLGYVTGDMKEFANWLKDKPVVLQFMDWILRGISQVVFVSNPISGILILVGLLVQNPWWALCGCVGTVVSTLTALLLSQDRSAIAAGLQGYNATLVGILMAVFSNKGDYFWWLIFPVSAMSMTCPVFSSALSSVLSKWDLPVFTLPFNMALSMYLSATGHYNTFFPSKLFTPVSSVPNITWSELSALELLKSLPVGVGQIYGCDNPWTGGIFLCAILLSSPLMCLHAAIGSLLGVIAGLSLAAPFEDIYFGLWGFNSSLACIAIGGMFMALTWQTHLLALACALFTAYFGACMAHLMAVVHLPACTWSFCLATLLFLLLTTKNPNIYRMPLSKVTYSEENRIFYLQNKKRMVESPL
Experimental: as §1, §2, §3

UT-B [2] = molecular target: T3, UT-B (Rattus norvegicus, UniProt P97689); assay: erythrocyte lysis model, rat erythrocytes; assay type: cell-based, rats
T3 construct: endogenous in cells; host or cells: erythrocytes of SD rats
T3 sequence (P97689 1-384): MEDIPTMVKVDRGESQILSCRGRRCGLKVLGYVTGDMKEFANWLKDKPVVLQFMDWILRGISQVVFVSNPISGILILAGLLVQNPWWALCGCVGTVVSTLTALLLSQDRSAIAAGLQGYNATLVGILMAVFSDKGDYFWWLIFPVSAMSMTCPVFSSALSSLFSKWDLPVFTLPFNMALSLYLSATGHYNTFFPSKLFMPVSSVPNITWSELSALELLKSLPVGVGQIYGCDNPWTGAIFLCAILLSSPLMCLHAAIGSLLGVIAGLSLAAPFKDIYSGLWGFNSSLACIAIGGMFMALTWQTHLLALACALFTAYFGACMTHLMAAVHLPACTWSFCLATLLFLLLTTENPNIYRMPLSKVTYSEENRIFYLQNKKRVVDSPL
Experimental: as §1, §2, §3

[3] = class of the IC50 to human UT-B, read-out: Activity level
[4] = concentration when the erythrocyte lysis rate of human was 50%, read-out: IC50 human
[5] = concentration when the erythrocyte lysis rate of rats was 50%, read-out: IC50 rats

Compound | IC50 (human UT-B; [3]) [nM] | IC50 (human UT-B; [4]) [nM] | IC50 (UT-B [1]) [nM] | IC50 (UT-B [2]; [5]) [nM] | IC50 (human UT-B; Activity level, class of the IC50 to human UT-B) [nM] | IC50 (human UT-B; IC50 human, concentration when the erythrocyte lysis rate of human was 50%) [nM] | IC50 (UT-B [2]) [nM]
COc1ccccc1NC(=O)c1ccc([N+](=O)[O-])o1 [Example 29, N-(2-methoxyphenyl)-5-nitrofuran-2-carboxamide] | < 10000 | 4870 | 17100 | 4110 |  |  | 
O=C(Nc1ccc(NC(=O)c2ccc([N+](=O)[O-])o2)cc1)c1ccc([N+](=O)[O-])o1 [Example 52, N,N′-(1,4-phenylene)bis(5-nitrofuran-2-carboxamide)] |  |  | 520 |  | < 10000 | 650 | 270
O=C(Nc1cc[nH]n1)c1ccc([N+](=O)[O-])o1 [Example 20, N-(1H-pyrazol-5-yl)-5-nitrofuran-2-carboxamide] | < 10000 | 220 | 1090 | 1360 |  |  | 
CC(=O)c1cccc(NC(=O)c2ccc([N+](=O)[O-])o2)c1 [Example 46, N-(3-acetylphenyl)-5-nitrofuran-2-carboxamide] | < 10000 | 1840 | 2460 | 490 |  |  | 
O=C(Nc1cccc(Cl)c1)c1ccc([N+](=O)[O-])o1 [Example 38, N-(3-chlorophenyl)-5-nitrofuran-2-carboxamide] | < 10000 | 2910 | 5810 | 1050 |  |  | 
O=C(Nc1ccon1)c1ccc([N+](=O)[O-])o1 [Example 19, N-(isoxazol-3-yl)-5-nitrofuran-2-carboxamide] | < 10000 | 3630 | 10200 | 30000 |  |  | 
CCOC(=O)c1cccc(NC(=O)c2ccc([N+](=O)[O-])o2)c1 [Example 42, Ethyl 3-(5-nitrofuran-2-carboxamido)benzoate] | < 10000 | 470 | 2300 | 450 |  |  | 
CC(=O)Nc1ccc(NC(=O)c2ccc([N+](=O)[O-])s2)cc1 [Example 9, N-(4-acetamidophenyl)-5-nitrothiophene-2-carboxamide] | < 10000 | 2530 | 18700 | 20100 |  |  | 
O=C(Nc1ccc2ncccc2c1)c1ccc([N+](=O)[O-])o1 [Example 16, N-(quinolin-6-yl)-5-nitrofuran-2-carboxamide] | < 10000 | 1640 | 5080 | 5490 |  |  | 
N#Cc1cccc(NC(=O)c2ccc([N+](=O)[O-])o2)c1 [Example 40, N-(3-cyanophenyl)-5-nitrofuran-2-carboxamide] | < 10000 | 1000 | 7850 | 2770 |  |  | 
O=C(Nc1ccccc1F)c1ccc([N+](=O)[O-])o1 [Example 35, N-(2-fluorophenyl)-5-nitrofuran-2-carboxamide] | < 10000 | 3620 | 43800 | 3800 |  |  | 
O=C(Nc1ccc(CCO)cc1)c1ccc([N+](=O)[O-])o1 [Example 50, N-(4-(2-hydroxyethyl)phenyl)-5-nitrofuran-2-carboxamide] | < 10000 | 5300 | 10200 | 8370 |  |  | 
O=C(Nc1cccc(O)c1)c1ccc([N+](=O)[O-])o1 [Example 32, N-(3-hydroxyphenyl)-5-nitrofuran-2-carboxamide] | < 10000 | 910 | 2390 | 670 |  |  | 

More lines, main results first:

IC50 (human UT-B; [3]) [nM] | IC50 (human UT-B; [4]) [nM] | IC50 (UT-B [1]) [nM] | IC50 (UT-B [2]; [5]) [nM] | Compound | IC50 (human UT-B; Activity level, class of the IC50 to human UT-B) [nM] | IC50 (human UT-B; IC50 human, concentration when the erythrocyte lysis rate of human was 50%) [nM] | IC50 (UT-B [2]) [nM]
< 10000 | 3680 | 740 | 210 | CN(C)CCNC(=O)c1cccc(NC(=O)c2ccc([N+](=O)[O-])o2)c1 [Example 60, N-(3-((2-dimethylaminoethyl)carbamoyl)phenyl)-5-nitrofuran-2-carboxamide] |  |  | 
< 10000 | 1420 | 500 | 90 | CC(C)CNC(=O)c1cccc(NC(=O)c2ccc([N+](=O)[O-])o2)c1 [Example 57, N-(3-(isobutylcarbamoyl)phenyl)-5-nitrofuran-2-carboxamide] |  |  | 
< 10000 | 130 | 520 | 240 | CNC(=O)c1cccc(NC(=O)c2ccc(C(C)=O)o2)c1 [Example 78, 3-(5-acetyl-2-furoyl)carbamamide] |  |  | 
< 10000 | 490 | 1020 | 260 | O=C(NCc1ccccc1)c1cccc(NC(=O)c2ccc([N+](=O)[O-])o2)c1 [Example 59, N-(3-(benzylcarbamoyl)phenyl)-5-nitrofuran-2-carboxamide] |  |  | 
< 10000 | 370 | 6390 | 4810 | ethyl 2-acetamido-5-(5-nitrofuran-2-carboxamide) benzoate [Example 75] |  |  | 
< 10000 | 740 | 310 | 200 | CN(C)C(=O)c1cccc(NC(=O)c2ccc([N+](=O)[O-])o2)c1 [Example 54, N-(3-(dimethylcarbamoyl)phenyl)-5-nitrofuran-2-carboxamide] |  |  | 
10000 to 20000 | 12300 | 5160 | 2960 | CN1C(=O)c2ccc(NC(=O)c3ccc([N+](=O)[O-])o3)cc2C1=O [Example 69, N-(2-methyl-1,3-dihydro-1,3-dioxo-2H-isoindol-5-yl)-5-nitrofuran-2-carboxamide] |  |  | 
< 10000 | 820 | 4940 | 1100 | C#Cc1cccc(NC(=O)c2ccc([N+](=O)[O-])o2)c1 [Example 79, N-3-(ethynylphenyl)-5-nitrofuran-2-carboxamide] |  |  | 
< 10000 | 540 | 2610 | 1090 | O=C(NCCN1CCOCC1)c1cccc(NC(=O)c2ccc([N+](=O)[O-])o2)c1 [Example 61, N-(3-((2-morpholinylethyl)carbamoyl)phenyl)-5-nitrofuran-2-carboxamide] |  |  | 
< 10000 | 2610 | 2660 | 1130 | CNC(=O)c1cc(NC(=O)c2ccc([N+](=O)[O-])o2)ccc1O [Example 67, N-(4-hydroxy-3-methylcarbomoylphenyl)-5-nitrofuran-2-carboxamide] |  |  | 
> 80000 | > 80000 | 15000 |  | CCOC(=O)c1c[nH]nc1NC(=O)c1ccc([N+](=O)[O-])o1 [Example 76, ethyl 5-(5-nitrofuran-2-carboxamide)-1H-pyrazole-4-carboxylate] |  |  | 
< 10000 | 1630 | 11500 | 7810 | CCOC(=O)c1cc(NC(=O)c2ccc([N+](=O)[O-])o2)[nH]n1 [Example 77, ethyl 5-(5-nitrofuran-2-carboxamide)-1H-pyrazole-3-carboxylate] |  |  | 
< 10000 | 23 | 290 | 15 | CNC(=O)c1cccc(NC(=O)c2ccc([N+](=O)[O-])o2)c1 [Example 53, N-(3-(methylcarbamoyl)phenyl)-5-nitrofuran-2-carboxamide] |  |  | 
< 10000 | 6610 | 27200 | 1300 | CN(C)CCC(=O)Nc1ccc(NC(=O)c2ccc([N+](=O)[O-])o2)cc1 [Example 73, N-(4-(3-dimethylamino)propionylaminophenyl)-5-nitrofuran-2-carboxamide] |  |  | 
< 10000 | 1250 | 5410 | 570 | CN(C)CC(=O)Nc1ccc(NC(=O)c2ccc([N+](=O)[O-])o2)cc1 [Example 71, N-(4-(2-dimethylamino)acetamidophenyl)-5-nitrofuran-2-carboxamide] |  |  | 
< 10000 | 940 | 1690 | 490 | NCc1ccc(NC(=O)c2ccc([N+](=O)[O-])o2)cc1 [Example 51, N-(4-aminomethylphenyl)-5-nitrofuran-2-carboxamide] |  |  | 

Reference: patent US12428389B2, “Diarylamide compound and application thereof” (Sunshine Lake Pharma Co., Ltd., priority 2019, dated 2025)
